This note sets out measurements from patent publication US6867185B2 (Bristol-Myers Squibb Company, priority 2001, dated 2005).

Assay [1] deals with T1, human neutrophil elastase (HNE) (Homo sapiens, UniProt P08246).
T1 construct: purchased Sigma
T1 sequence (P08246 30-267): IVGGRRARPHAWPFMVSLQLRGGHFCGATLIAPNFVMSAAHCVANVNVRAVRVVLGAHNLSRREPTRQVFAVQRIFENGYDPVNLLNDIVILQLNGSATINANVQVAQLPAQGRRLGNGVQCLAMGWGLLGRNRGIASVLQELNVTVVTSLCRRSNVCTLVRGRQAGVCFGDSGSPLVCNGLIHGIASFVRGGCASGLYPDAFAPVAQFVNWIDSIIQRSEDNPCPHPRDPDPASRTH
The assay is described as follows: Specificity assay, human neutrophil elastase. The format is biochemical. The note with it: 2 hr pre-incubation, read-out: HLE. Here is the method:
(§1) The specificities of compounds of the present invention were determined against a variety of serine proteases: human neutrophil elastase (HNE), porcine pancreatic elastase (PPE) and human pancreatic chymotrypsin and one cysteine protease: human liver cathepsin B. In all cases a 96-well plate format protocol using colorimetric p-nitroaniline (pNA) substrate specific for each enzyme was used as described previously (U.S. Pat. No. 6,323,180) with some modifications to the serine protease assays. All enzymes were purchased from Sigma while the substrates were from Bachem.
(§2) Each assay included a 2 hr enzyme-inhibitor pre-incubation at RT followed by addition of substrate and hydrolysis to ˜30% conversion as measured on a Spectramax Pro microplate reader. Compound concentrations varied from 100 to 0.4 μM depending on their potency. […]
(§3) The percentage of inhibition was calculated using the formula: [1−((UVinh−UVblank)/(UVctl−UVblank))]×100 […]

Assay [2] has as its system human pancreatic chymotrypsin. Description: Specificity assay, chymotrypsin. The note with it: 2 hr pre-incubation. In kind it is biochemical. Here is the method: as §1, §2, §3
The subject of assay [3] is HCV replicon in Huh7 cells. Description: HCV replicon cell-based assay (replicon FRET assay). Also noted: species or system HCV strain 1B. The note with it: Hepatitis C virus, Huh-7, HCV replicon cell assay. Put shortly:
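Huh7 cells carrying a genotype 1b subgenomic replicon (neo, NS3–NS5B) were treated with compound for 4 days at 37 °C in 0.5% DMSO final. Lysates with 10 μM RET S1 FRET peptide and 150 mM NaCl were read kinetically at 340/490 nm over 21 cycles. EC50 was derived as for the enzyme IC50.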

Assay [4] addresses T2, human liver cathepsin B (Homo sapiens, UniProt P07858).
T2 construct: purchased Sigma; host or cells: human liver (as named)
The assay is described as follows: Specificity assay, cathepsin B. The format is biochemical. As to conditions: 2 hr pre-incubation. Here is the method: as §1, §2, §3

Each structure is given as a SMILES string. pEC50, pIC50: −log10 of the molar value. Counter-ions that a name gives are not always drawn. Like-named read-outs stand apart in the source and are kept apart here.

What is called pEC50 is −log10 of the EC50, conventionally taken in molar units. As to `COc1ccc2c(O[C@@H]3C[C@H]4C(=O)N[C@]5(C(=O)NS(=O)(=O)C6CC6)CC5/C=C/CCCC[C@H](N)C(=O)N4C3)cc(-c3ccccc3)nc2c1` (stereo partly drawn) [Compound 6, (1S,4R,6S,13S,17R)-7-trans-Cyclopropanesulfonic acid [13-amino-17-(7-methoxy-2-phenylquinolin-4-yloxy)-2,14-dioxo-3,15-diazatricyclo[13.3.0.0^4,6]octadec-7-ene-4-carbonyl]amide dihydrochloride], the pIC50 in assay [1] is 4.52; in assay [2], under 4.00; in assay [4], under 4.00. Besides, the figures for the pEC50 in assay [3] (EC50 ranges) and in assay [3] (read-out: EC50) were over 6.30 and about 6.91, respectively.
